Measurements reported in patent publication US9884849B2, “Fluorinated benzofuranyl-pyrimidine derivatives containing a sulfoximine group” (Bayer Pharma Aktiengesellschaft, priority 2014, dated 2018).
Like-named read-outs stand apart in the source and are kept apart here.

Key:
[1] = target: T1, CDK2/CycE (Homo sapiens, UniProt P24941); assay: CDK2/CycE high ATP kinase assay (Method 2b, TR-FRET); type: biochemical; conditions: 2 mM ATP
T1 construct: GST; purchased ProQinase GmbH (Freiburg, Germany); host or cells: insect cells (Sf9)
Method: 2b. CDK2/CycE High ATP Kinase Assay:
CDK2/CycE-Inhibitory Activity of Compounds of the Present Invention at 2 mM Adenosine-Tri-Phosphate (ATP) was Quantified Employing the CDK2/CycE TR-FRET (TR-FRET=Time Resolved Fluorescence Energy Transfer) Assay as Described in the Following Paragraphs.
Recombinant fusion proteins of GST and human CDK2 and of GST and human CycE, expressed in insect cells (Sf9) and purified by Glutathion-Sepharose affinity chromatography, were purchase from ProQinase GmbH (Freiburg, Germany). As substrate for the kinase reaction biotinylated peptide biotin-Ttds-YISPLKSPYKISEG (C-terminus in amid form) was used which can be purchased e.g. form the company JERINI peptide technologies (Berlin, Germany).
For the assay 50 nl of a 100 fold concentrated solution of the test compound in DMSO was pipetted into a black low volume 384 well microtiter plate (Greiner Bio-One, Frickenhausen, Germany), 2 yl of a solution of CDK2/CycE in aqueous assay buffer [50 mM Tris/HCl pH 8.0, 10 mM MgCl2, 1.0 mM dithiothreitol, 0.1 mM sodium ortho-vanadate, 0.01% (v/v) Nonidet-P40 (Sigma)] were added and the mixture was incubated for 15 min at 22° C. to allow pre-binding of the test compounds to the enzyme before the start of the kinase reaction. […] The concentration of CDK2/CycE was adjusted depending of the activity of the enzyme lot and was chosen appropriate to have the assay in the linear range, typical concentrations were in the range of 15 ng/ml. The reaction was stopped by the addition of 5 yl of a solution of TR-FRET detection reagents (0.2 μM streptavidine-XL665 [Cisbio Bioassays, Codolet, France] and 1 nM anti-RB(pSer807/pSer811)-antibody from BD Pharmingen [#558389] and 1.2 nM LANCE EU-W1024 labeled anti-mouse IgG antibody [Perkin-Elmer, product no. AD0077, as an alternative a Terbium-cryptate-labeled anti-mouse IgG antibody from Cisbio Bioassays can be used]) in an aqueous EDTA-solution (100 mM EDTA, 0.2% (w/v) bovine serum albumin in 100 mM HEPES/NaOH pH 7.0).
The resulting mixture was incubated 1 h at 22° C. to allow the formation of complex between the phosphorylated biotinylated peptide and the detection reagents. Subsequently the amount of phosphorylated substrate was evaluated by measurement of the resonance energy transfer from the Eu-chelate to the streptavidine-XL. Therefore, the fluorescence emissions at 620 nm and 665 nm after excitation at 350 nm were measured in a TR-FRET reader, e.g. a Rubystar (BMG Labtechnologies, Offenburg, Germany) or a Viewlux (Perkin-Elmer). The ratio of the emissions at 665 nm and at […] was taken as the measure for the amount of phosphorylated substrate. The data were normalised (enzyme reaction without inhibitor=0% inhibition, all other assay components but no enzyme=100% inhibition).

[2] = test system: Caco-2 cells; assay: Proliferation assay Caco-2 (Method 3); type: cell-based, human; conditions: Caco-2, 4 days, crystal violet, read-out: Inhibition of Caco-2 cell proliferation IC50
Method: (§1) Cultivated tumour cells (HeLa, human cervical tumour cells, ATCC CCL-2; NCI-H460, human non-small cell lung carcinoma cells, ATCC HTB-177; A2780, human ovarian carcinoma cells, ECACC #93112519; DU 145, hormone-independent human prostate carcinoma cells, ATCC HTB-81; HeLa-MaTu-ADR, multidrug-resistant human cervical carcinoma cells, EPO-GmbH Berlin; Caco-2, human colorectal carcinoma cells, ATCC HTB-37; B16F10, mouse melanoma cells, ATCC CRL-6475) were plated at a density of 5,000 cells/well (DU145, HeLa-MaTu-ADR), 3,000 cells/well (NCI-H460, HeLa), 2,500 cells/well (A2780), 1,500 cells/well (Caco-2), or 1,000 cells/well (B16F10) in a 96-well multititer plate in 200 μL of their respective growth medium supplemented 10% fetal calf serum. After 24 hours, the cells of one plate (zero-point plate) were stained with crystal violet (see below), while the medium of the other plates was replaced by fresh culture medium (200 μl), to which the test substances were added in various concentrations (0 μM, as well as in the range of 0.001-10 μM; the final concentration of the solvent dimethyl sulfoxide was 0.5%). The cells were incubated for 4 days in the presence of test substances. Cell proliferation was determined by staining the cells with crystal violet: the cells were fixed by adding 20 μl/measuring point of an 11% glutaric aldehyde solution for 15 minutes at room temperature. After three washing cycles of the fixed cells with water, the plates were dried at room temperature. The cells were stained by adding 100 μl/measuring point of a 0.1% crystal violet solution (pH 3.0). After three washing cycles of the stained cells with water, the plates were dried at room temperature. The dye was dissolved by adding 100 μl/measuring point of a 10% acetic acid solution. The extinction was determined by photometry at a wavelength of 595 nm. The change of cell number, in percent, was calculated by normalization of the measured values to the extinction values of the zero-point plate (=0%) and the extinction of the untreated (0 μm) cells (=100%). The IC50 values (inhibitory concentration at 50% of maximal effect) were determined by means of a 4 parameter fit.

[3] = test system: DU145 cells; assay: Proliferation assay DU145 (Method 3); type: cell-based, human; conditions: DU145, 4 days, crystal violet, read-out: Inhibition of DU145 cell proliferation IC50
Method: as §1

SMILES | IC50 [1] [nM] | IC50 [2] [nM] | IC50 [3] [nM] | IC50 ([2]; Homo sapiens, Caco-2, 96 h) [nM] | IC50 ([3]; Homo sapiens, DU-145, 96 h) [nM]
CS(=N)(=O)Cc1cccc(Nc2ncc(F)c(-c3ccc(F)c4ccoc34)n2)c1 (single isomer, unassigned) [Example 6, 5-Fluoro-4-(4-fluoro-1-benzofuran-7-yl)-N-{3-[(S-methylsulfonimidoyl)-methyl]-phenyl}-pyrimidin-2-amine] | 1000 | 112 | 110 |  | 
Cc1cc(CS(C)(=O)=NC#N)cc(Nc2ncc(F)c(-c3ccc(F)c4ccoc34)n2)c1 (racemic) [Example 13, (rac)-[(3-{[5-Fluoro-4-(4-fluoro-1-benzofuran-7-yl)pyrimidin-2-yl]amino}-5-methylbenzyl)-(methyl)oxido-λ^6-sulfanylidene]cyanamide] | 1200 |  |  | 40 | 86
